Test systems include A498; ACHN; CAKI-1; HCT-116; Hs-578T; IGROV-1; KM12; LOX IMVI; NCI-H23; NCI-H522; NCI/ADR-RES; OVCAR-3; OVCAR-5; SN12C; SNB-19; TK-10; UACC-257.
Common to all, as to experiment: NCI tumour cell line growth inhibition, 48 h

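96-well plates; 48 h exposure; 5 concentrations. Endpoints by linear interpolation between flanking doses. Not reached: highest tested concentration assigned. Here, GI50 denotes the concentration required for 50% inhibition of growth.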 The source made the active and inactive calls. No stated cut-off is given here; in the data, active = GI50 up to about 1.1 µM and inactive = higher.

Regarding `O=C1Nc2cccc(Cl)c2/C1=C\c1c(Cl)nc2sccn12`, the GI50 in the experiment on A498 was 33.1 µM (inactive); with ACHN it was 12.2 µM (inactive); in the experiment with CAKI-1, 43.2 µM (inactive); in the experiment with HCT-116 it was 37.3 µM (inactive); in the experiment with Hs-578T, 21.9 µM (inactive); with IGROV-1, 28 µM (inactive). Moreover, the GI50 was > 100 µM (inactive) in the experiment with KM12; 63.8 µM (inactive) in the experiment on LOX IMVI; 21.7 µM (inactive) in the experiment with NCI-H23; 50.5 µM (inactive) in the experiment with NCI-H522; 55.1 µM (inactive) in the experiment on NCI/ADR-RES; > 100 µM (inactive) in the experiment on OVCAR-3. Besides, the GI50 is > 100 µM (inactive) with OVCAR-5; 29.6 µM (inactive) in the experiment with SN12C; 17.6 µM (inactive) in the experiment on SNB-19; 11.2 µM (inactive) in the experiment with TK-10; > 100 µM (inactive) with UACC-257.

Turning to `CCN(CC)CCn1nc(N)c2nc3cc(Cl)ccc3nc21`, the GI50 in the experiment with A498 is > 100 µM (inactive); with ACHN it was 37.5 µM (inactive); in the experiment with CAKI-1, 51.4 µM (inactive); in the experiment on HCT-116, 48.4 µM (inactive); in the experiment with Hs-578T it was > 100 µM (inactive); in the experiment with IGROV-1, 16.3 µM (inactive). For the same compound, the GI50 in the experiment with KM12 was 94.8 µM (inactive); in the experiment on LOX IMVI it was 51.2 µM (inactive); in the experiment with NCI-H23, 91.6 µM (inactive); in the experiment on NCI-H522 it was 31.8 µM (inactive); in the experiment on NCI/ADR-RES, 35.3 µM (inactive); with OVCAR-5 it was 89.1 µM (inactive). For the same compound, the GI50 in the experiment with SN12C was 45.1 µM (inactive); with SNB-19 it was 53.5 µM (inactive); with TK-10, > 100 µM (inactive); with UACC-257, 37.5 µM (inactive).

As for `COC(=O)/C=C\C(C#N)(C#N)/N=C/c1cccc(OC)c1`, the GI50 in the experiment on A498 is 18.6 µM (inactive); with ACHN, 2.61 µM (inactive); with CAKI-1 it was 1.92 µM (inactive); with HCT-116, 3.44 µM (inactive); in the experiment on Hs-578T, 18.1 µM (inactive); with IGROV-1 it was 11.7 µM (inactive). The GI50 was 16.4 µM (inactive) in the experiment with KM12; 7.16 µM (inactive) in the experiment on LOX IMVI; 6.9 µM (inactive) in the experiment on NCI-H23; 1.38 µM (inactive) in the experiment on NCI-H522; 14.4 µM (inactive) with NCI/ADR-RES; 11.5 µM (inactive) in the experiment on OVCAR-3. In addition, the GI50 with OVCAR-5 is 8.49 µM (inactive); in the experiment on SN12C it was 11.9 µM (inactive); in the experiment with SNB-19, 23.3 µM (inactive); with TK-10 it was 1.91 µM (inactive); in the experiment with UACC-257, 14 µM (inactive).

For the compound `Cc1ccc(C2=CC(=O)/C(=C\C(=O)c3ccc(Br)cc3)O2)c(C)c1`, the GI50 was 19.9 µM (inactive) in the experiment with A498; 4.57 µM (inactive) in the experiment on ACHN; 3.04 µM (inactive) in the experiment on CAKI-1; 7.64 µM (inactive) with HCT-116; 18.1 µM (inactive) in the experiment on Hs-578T; 18.4 µM (inactive) in the experiment with IGROV-1. The GI50 was 20.4 µM (inactive) in the experiment with KM12; 3.78 µM (inactive) in the experiment on LOX IMVI; 26.6 µM (inactive) with NCI-H23; 1.69 µM (inactive) in the experiment on NCI-H522; 7.91 µM (inactive) in the experiment on NCI/ADR-RES; 5.3 µM (inactive) in the experiment on OVCAR-3. Moreover, the GI50 in the experiment with OVCAR-5 is 23.7 µM (inactive); in the experiment on SN12C it was 13.2 µM (inactive); in the experiment on SNB-19, 18.7 µM (inactive); in the experiment on TK-10, 3.83 µM (inactive); with UACC-257 it was 16.9 µM (inactive).

Turning to `O=C1CSC(=S)N1c1ccco1`, the GI50 in the experiment on A498 was > 100 µM (inactive); in the experiment on ACHN it was > 100 µM (inactive); in the experiment with CAKI-1, > 100 µM (inactive); with HCT-116, 60.4 µM (inactive); in the experiment with Hs-578T, > 100 µM (inactive); in the experiment with IGROV-1, > 100 µM (inactive). Also, the GI50 in the experiment on KM12 was 21.9 µM (inactive); in the experiment on LOX IMVI it was 79.6 µM (inactive); with NCI-H23 it was > 100 µM (inactive); in the experiment with NCI-H522 it was 23.4 µM (inactive); in the experiment on NCI/ADR-RES it was 37.9 µM (inactive); with OVCAR-3 it was 77.8 µM (inactive). The GI50 in the experiment with OVCAR-5 was > 100 µM (inactive); in the experiment on SN12C, 57.1 µM (inactive); with SNB-19, > 100 µM (inactive); in the experiment with TK-10 it was > 100 µM (inactive); in the experiment with UACC-257, > 100 µM (inactive).

As for `N=C(N)SCCON1C(=O)c2ccccc2C1=O`, the GI50 in the experiment with A498, in the experiment on ACHN, with CAKI-1, in the experiment with HCT-116, in the experiment on Hs-578T and in the experiment with IGROV-1 was > 100 µM (inactive) in each case. The GI50 with KM12, in the experiment with LOX IMVI, in the experiment with NCI-H23, in the experiment on NCI-H522, in the experiment on NCI/ADR-RES and in the experiment on OVCAR-3 was > 100 µM (inactive) in each case. Further, the GI50 with OVCAR-5, in the experiment with SN12C, with SNB-19, in the experiment on TK-10 and in the experiment on UACC-257 was > 100 µM (inactive) each time.

For `Cc1ccc2nc(Cl)c(/C=N/N3C(=O)/C(=C/Cc4ccco4)N=C3c3ccccc3)cc2c1`, the GI50 was 5.06 µM (inactive) in the experiment with A498; 72.3 µM (inactive) in the experiment on ACHN; 5.04 µM (inactive) with CAKI-1; 18.5 µM (inactive) with HCT-116; 34.2 µM (inactive) with Hs-578T; 23.1 µM (inactive) in the experiment with IGROV-1. For the same compound, the GI50 is 3.33 µM (inactive) in the experiment on KM12; 27.4 µM (inactive) in the experiment on LOX IMVI; > 49.2 µM (inactive) with NCI-H23; 27.4 µM (inactive) in the experiment on NCI-H522; 28.4 µM (inactive) with NCI/ADR-RES; 71.1 µM (inactive) in the experiment on OVCAR-3. For the same compound, the GI50 is > 74.6 µM (inactive) in the experiment on OVCAR-5; 26.5 µM (inactive) with SN12C; 35.8 µM (inactive) in the experiment with SNB-19; 18.4 µM (inactive) in the experiment with TK-10; 32.7 µM (inactive) in the experiment with UACC-257.

On to `O=[N+]([O-])c1ccc2nc3ccccc3cc2c1`, for which the GI50 in the experiment on A498 was 1.5 µM (inactive); with ACHN, 3.04 µM (inactive); with CAKI-1, 0.0149 µM (active); in the experiment with HCT-116 it was 1.65 µM (inactive); in the experiment with Hs-578T it was 3.21 µM (inactive); in the experiment on IGROV-1, 1.91 µM (inactive). Besides, the GI50 with LOX IMVI is 2.04 µM (inactive); with NCI-H23 it was 2.28 µM (inactive); in the experiment on NCI-H522 it was 2.81 µM (inactive); with NCI/ADR-RES, 1.51 µM (inactive); in the experiment with OVCAR-3, 0.342 µM (active); in the experiment on OVCAR-5, 2.48 µM (inactive). Besides, the GI50 was 1.96 µM (inactive) with SN12C, 2.99 µM (inactive) in the experiment with SNB-19, 1.64 µM (inactive) with TK-10 and 1.34 µM (inactive) in the experiment on UACC-257.

In the case of `CCOC(=O)c1[nH]c2nc(SC)nc(NC)c2c1N`, the GI50 in the experiment on A498, in the experiment on ACHN, in the experiment on CAKI-1, with HCT-116, with Hs-578T and with IGROV-1 was > 100 µM (inactive) throughout. The GI50 is > 100 µM (inactive) in the experiment on KM12; 43.2 µM (inactive) in the experiment with LOX IMVI; > 100 µM (inactive) in the experiment on NCI-H23; 51.4 µM (inactive) in the experiment on NCI-H522; 59.6 µM (inactive) with NCI/ADR-RES; > 100 µM (inactive) with OVCAR-3. Further, the GI50 with OVCAR-5, with SN12C, in the experiment with SNB-19, with TK-10 and in the experiment on UACC-257 was > 100 µM (inactive) in each case.

As to `C[C@@]12C[C@@H](c3ccccc3O1)N1CCSC1=N2`, the GI50 in the experiment on A498, in the experiment with ACHN, with CAKI-1, in the experiment on HCT-116, in the experiment on Hs-578T and in the experiment with IGROV-1 was > 100 µM (inactive) in each case. The GI50 in the experiment on KM12, in the experiment with LOX IMVI, in the experiment on NCI-H23, in the experiment with NCI-H522, with NCI/ADR-RES and in the experiment with OVCAR-3 was > 100 µM (inactive) throughout. The GI50 in the experiment with OVCAR-5, in the experiment with SN12C, with SNB-19, with TK-10 and in the experiment on UACC-257 was > 100 µM (inactive) each time.

Regarding `O=[N+]([O-])c1ccc(-c2nnc(C34CC5CC(CC(C5)C3)C4)o2)cc1`, the GI50 in the experiment with A498, with ACHN, in the experiment on CAKI-1, in the experiment with HCT-116, in the experiment on Hs-578T and in the experiment on IGROV-1 was > 100 µM (inactive) each time. For the same compound, the GI50 in the experiment on KM12, with LOX IMVI, with NCI-H23, with NCI-H522, in the experiment on NCI/ADR-RES and in the experiment with OVCAR-3 was > 100 µM (inactive) throughout. Moreover, the GI50 in the experiment on OVCAR-5, in the experiment on SN12C, in the experiment on SNB-19 and in the experiment on TK-10 was > 100 µM (inactive) in each case.

With `CC(C)(Sc1cc(C(C)(C)C)c(O)c(C(C)(C)C)c1)Sc1cc(C(C)(C)C)c(O)c(C(C)(C)C)c1` [PROBUCOL], the GI50 in the experiment with A498, in the experiment with ACHN, in the experiment on CAKI-1, with HCT-116, in the experiment on Hs-578T and with IGROV-1 was > 100 µM (inactive) each time. The GI50 with KM12, with LOX IMVI, with NCI-H23, in the experiment on NCI-H522, in the experiment on NCI/ADR-RES and in the experiment with OVCAR-5 was > 100 µM (inactive) throughout. Besides, the GI50 in the experiment on SN12C, with SNB-19, in the experiment with TK-10 and in the experiment on UACC-257 was > 100 µM (inactive) each time.
